Earlier results in patent EP0331593A1, “Process for the preparation of hydroxybenzaldehydes by hydrocarbonylation” (RHONE-POULENC CHIMIE, priority 1988, dated 1989).
Read-outs that look alike come from different tables or passages of the source.

Experiments:
[1] = in water, generally 25°C
[2] = phosphine

| Structure (SMILES) | pKa * (pka del'acide conjugué de l'amine tertiaire) ([1]; Tableau I) | pKa * (pka de l'acide conjugé de l'amine tertiaire) ([1]; Tableau II) | pKa * (pka del'acide conjugué de l'amine tertiaire) ([1]; Tableau III) | pKa * (pka de l'acide conjugé de l'amine tertiaire) ([1]; Tableau IV) | pKa à 25°C [2] |
| --- | --- | --- | --- | --- | --- |
| Cc1ccncc1C [Diméthyl-3,4 Pyridine] | 6,57 | 6,57 |  |  |  |
| c1cnccn1 [Pyrazine] | 0,65 |  | 0,65 | 0,65 |  |
| Cc1ccnc(C)c1 [Diméthyl-2,4 Pyridine] | 6,99 | 6,99 | 6,99 | 6,99 |  |
| c1ccc(P(c2ccccc2)c2ccccc2)cc1 [triphénylphosphine] |  |  |  |  | 2,73 |
| Cc1ccncc1 [Gamma Picoline] | 6,02 |  |  |  |  |
| Cc1cccc(C)n1 [Diméthyl-2,6 Pyridine] | 6,73 | 6,73 |  |  |  |
| Cc1cccc(P(c2cccc(C)c2)c2cccc(C)c2)c1 [tris(méthyl-3 phényl)phosphine] |  |  |  |  | 3,3 |
